Patent US9050341B2, “Methods of treating drug resistant and other tumors by administering 6,7-dialkoxy quinazoline derivatives” (NATCO PHARMA LIMITED, priority 2009, dated 2015)

Assays:
Assay in all cases: KinomeScan kinase profiling
Assay type in all cases: binding
[1] = molecular target: T1, ABL1 (F317L) (Homo sapiens, UniProt P00519, F317L)
T1 construct: host or cells: E. coli host derived from BL21 (T7 phage lysate)
Outline: (§1)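 Kinases were expressed as T7 phage fusions in a BL21-derived E. coli host and the cleared lysates were used. Ligand beads were blocked with biotin and buffer (1% BSA, 0.05% Tween 20, 1 mM DTT). Compounds came from 40× DMSO stocks, and phage in the eluates was titred by qPCR.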

[2] = molecular target: T2, ABL1 (M351T) (Homo sapiens, UniProt P00519, M351T)
T2 construct: host or cells: E. coli host derived from BL21 (T7 phage lysate)
Outline: as §1

[3] = molecular target: T3, BLK (Homo sapiens, UniProt P51451)
T3 construct: purchased Ambit Biosciences Corp (KinomeScan); host or cells: E. coli host derived from the BL21 strain, T7 phage
Outline: as §1

[4] = molecular target: T4, BMPR1B (Homo sapiens, UniProt O00238)
T4 construct: purchased Ambit Biosciences Corp (KinomeScan); host or cells: E. coli host derived from the BL21 strain, T7 phage
Outline: as §1

[5] = molecular target: T5, BRSK2 (Homo sapiens, UniProt Q8IWQ3)
T5 construct: purchased Ambit Biosciences Corp (KinomeScan); host or cells: E. coli host derived from the BL21 strain, T7 phage
Outline: as §1

[6] = molecular target: T6, CAMK4 (Homo sapiens, UniProt Q16566)
T6 construct: host or cells: T7 phage in E. coli (BL21-derived)
T6 sequence (Q16566 whole entry): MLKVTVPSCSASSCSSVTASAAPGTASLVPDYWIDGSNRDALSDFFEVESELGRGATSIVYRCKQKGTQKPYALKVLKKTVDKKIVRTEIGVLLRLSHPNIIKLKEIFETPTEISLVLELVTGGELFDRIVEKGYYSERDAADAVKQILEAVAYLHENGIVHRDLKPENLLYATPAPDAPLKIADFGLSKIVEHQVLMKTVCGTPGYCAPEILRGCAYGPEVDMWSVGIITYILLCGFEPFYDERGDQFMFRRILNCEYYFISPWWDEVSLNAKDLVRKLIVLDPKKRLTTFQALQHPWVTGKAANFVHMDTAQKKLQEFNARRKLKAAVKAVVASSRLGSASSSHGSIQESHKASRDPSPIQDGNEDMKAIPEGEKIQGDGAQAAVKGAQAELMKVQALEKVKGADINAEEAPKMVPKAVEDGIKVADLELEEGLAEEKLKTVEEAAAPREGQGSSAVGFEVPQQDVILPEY
Outline: as §1

[7] = molecular target: T7, DAPK3 (Homo sapiens, UniProt O43293)
T7 construct: purchased Ambit Biosciences Corp (KinomeScan); host or cells: T7 phage in E. coli host derived from BL21
Outline: as §1

[8] = molecular target: T8, DDR1 (Homo sapiens, UniProt Q08345)
T8 construct: purchased Ambit Biosciences Corp (KinomeScan); host or cells: T7 phage in E. coli host derived from BL21
Outline: as §1

[9] = molecular target: T9, DDR2 (Homo sapiens, UniProt Q16832)
T9 construct: purchased Ambit Biosciences Corp (KinomeScan); host or cells: T7 phage in E. coli host derived from BL21
Outline: as §1

[10] = molecular target: T10, EGFR (L747-E749del, A750P) (Homo sapiens, UniProt P00533, A750P/DEL747-749)
T10 construct: purchased Ambit Biosciences Corp (KinomeScan); host or cells: T7 phage in E. coli host derived from BL21
Outline: as §1

[11] = molecular target: T11, FAK (Homo sapiens, UniProt Q05397)
T11 construct: host or cells: E. coli host derived from BL21, T7 phage lysate
Outline: as §1

[12] = molecular target: T12, INSR (Homo sapiens, UniProt P06213)
T12 construct: host or cells: T7 phage in E. coli host derived from BL21
T12 sequence (P06213 28-1382): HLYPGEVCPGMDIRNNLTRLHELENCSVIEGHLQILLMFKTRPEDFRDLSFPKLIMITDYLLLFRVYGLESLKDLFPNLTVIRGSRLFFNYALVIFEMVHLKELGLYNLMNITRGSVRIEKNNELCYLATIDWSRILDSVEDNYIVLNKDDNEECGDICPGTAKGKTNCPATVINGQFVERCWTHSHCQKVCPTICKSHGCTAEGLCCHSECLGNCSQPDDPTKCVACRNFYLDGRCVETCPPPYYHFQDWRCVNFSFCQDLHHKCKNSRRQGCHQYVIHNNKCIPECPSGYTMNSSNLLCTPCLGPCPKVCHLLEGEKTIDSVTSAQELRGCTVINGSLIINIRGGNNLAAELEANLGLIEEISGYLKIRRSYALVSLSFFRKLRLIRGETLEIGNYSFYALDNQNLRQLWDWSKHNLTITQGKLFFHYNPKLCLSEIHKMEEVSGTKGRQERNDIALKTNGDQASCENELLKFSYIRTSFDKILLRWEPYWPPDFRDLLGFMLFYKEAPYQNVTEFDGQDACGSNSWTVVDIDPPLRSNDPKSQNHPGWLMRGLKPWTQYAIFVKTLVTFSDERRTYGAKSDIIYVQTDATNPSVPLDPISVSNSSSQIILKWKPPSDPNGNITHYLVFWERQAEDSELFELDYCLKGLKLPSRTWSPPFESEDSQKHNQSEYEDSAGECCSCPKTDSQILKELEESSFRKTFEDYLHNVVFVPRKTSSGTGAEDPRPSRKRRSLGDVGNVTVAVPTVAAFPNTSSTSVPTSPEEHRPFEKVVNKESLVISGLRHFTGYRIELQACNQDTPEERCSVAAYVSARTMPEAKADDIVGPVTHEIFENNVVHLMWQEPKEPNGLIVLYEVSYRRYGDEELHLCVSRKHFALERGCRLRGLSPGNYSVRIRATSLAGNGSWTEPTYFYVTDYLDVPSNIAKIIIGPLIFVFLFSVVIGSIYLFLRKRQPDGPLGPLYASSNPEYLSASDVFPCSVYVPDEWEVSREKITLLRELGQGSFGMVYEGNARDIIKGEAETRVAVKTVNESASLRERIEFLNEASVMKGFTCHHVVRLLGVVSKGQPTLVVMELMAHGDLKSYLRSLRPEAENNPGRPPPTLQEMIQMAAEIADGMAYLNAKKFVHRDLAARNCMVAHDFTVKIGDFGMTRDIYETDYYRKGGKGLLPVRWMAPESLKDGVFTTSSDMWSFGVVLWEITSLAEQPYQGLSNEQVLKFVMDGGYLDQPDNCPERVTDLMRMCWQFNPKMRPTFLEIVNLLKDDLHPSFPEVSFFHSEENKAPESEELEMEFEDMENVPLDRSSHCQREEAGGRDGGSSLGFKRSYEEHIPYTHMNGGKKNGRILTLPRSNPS
Outline: as §1

[13] = molecular target: T13, INSRR (Homo sapiens, UniProt P14616)
T13 construct: host or cells: T7 phage in E. coli host derived from BL21
Outline: as §1

[14] = molecular target: T14, JNK1 (Homo sapiens, UniProt P45983)
T14 construct: host or cells: T7 phage in E. coli host derived from BL21
T14 sequence (P45983 whole entry): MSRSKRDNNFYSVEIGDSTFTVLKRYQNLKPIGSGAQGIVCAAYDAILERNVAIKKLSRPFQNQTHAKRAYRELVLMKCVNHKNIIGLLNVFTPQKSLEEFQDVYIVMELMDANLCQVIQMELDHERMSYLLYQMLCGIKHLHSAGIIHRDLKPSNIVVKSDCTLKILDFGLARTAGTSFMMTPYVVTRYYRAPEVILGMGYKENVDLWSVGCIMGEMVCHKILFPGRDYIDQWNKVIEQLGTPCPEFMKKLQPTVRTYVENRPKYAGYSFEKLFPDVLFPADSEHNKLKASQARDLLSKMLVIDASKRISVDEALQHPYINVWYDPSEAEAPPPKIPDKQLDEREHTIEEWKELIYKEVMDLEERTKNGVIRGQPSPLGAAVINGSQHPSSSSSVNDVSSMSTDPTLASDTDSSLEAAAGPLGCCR
Outline: as §1

[15] = molecular target: T15, MLK2 (Homo sapiens, UniProt Q02779)
T15 construct: host or cells: T7 phage in E. coli host derived from BL21
Outline: as §1

[16] = molecular target: T16, NEK1 (Homo sapiens, UniProt Q96PY6)
T16 construct: host or cells: T7 phage in E. coli host derived from BL21
T16 sequence (Q96PY6 whole entry): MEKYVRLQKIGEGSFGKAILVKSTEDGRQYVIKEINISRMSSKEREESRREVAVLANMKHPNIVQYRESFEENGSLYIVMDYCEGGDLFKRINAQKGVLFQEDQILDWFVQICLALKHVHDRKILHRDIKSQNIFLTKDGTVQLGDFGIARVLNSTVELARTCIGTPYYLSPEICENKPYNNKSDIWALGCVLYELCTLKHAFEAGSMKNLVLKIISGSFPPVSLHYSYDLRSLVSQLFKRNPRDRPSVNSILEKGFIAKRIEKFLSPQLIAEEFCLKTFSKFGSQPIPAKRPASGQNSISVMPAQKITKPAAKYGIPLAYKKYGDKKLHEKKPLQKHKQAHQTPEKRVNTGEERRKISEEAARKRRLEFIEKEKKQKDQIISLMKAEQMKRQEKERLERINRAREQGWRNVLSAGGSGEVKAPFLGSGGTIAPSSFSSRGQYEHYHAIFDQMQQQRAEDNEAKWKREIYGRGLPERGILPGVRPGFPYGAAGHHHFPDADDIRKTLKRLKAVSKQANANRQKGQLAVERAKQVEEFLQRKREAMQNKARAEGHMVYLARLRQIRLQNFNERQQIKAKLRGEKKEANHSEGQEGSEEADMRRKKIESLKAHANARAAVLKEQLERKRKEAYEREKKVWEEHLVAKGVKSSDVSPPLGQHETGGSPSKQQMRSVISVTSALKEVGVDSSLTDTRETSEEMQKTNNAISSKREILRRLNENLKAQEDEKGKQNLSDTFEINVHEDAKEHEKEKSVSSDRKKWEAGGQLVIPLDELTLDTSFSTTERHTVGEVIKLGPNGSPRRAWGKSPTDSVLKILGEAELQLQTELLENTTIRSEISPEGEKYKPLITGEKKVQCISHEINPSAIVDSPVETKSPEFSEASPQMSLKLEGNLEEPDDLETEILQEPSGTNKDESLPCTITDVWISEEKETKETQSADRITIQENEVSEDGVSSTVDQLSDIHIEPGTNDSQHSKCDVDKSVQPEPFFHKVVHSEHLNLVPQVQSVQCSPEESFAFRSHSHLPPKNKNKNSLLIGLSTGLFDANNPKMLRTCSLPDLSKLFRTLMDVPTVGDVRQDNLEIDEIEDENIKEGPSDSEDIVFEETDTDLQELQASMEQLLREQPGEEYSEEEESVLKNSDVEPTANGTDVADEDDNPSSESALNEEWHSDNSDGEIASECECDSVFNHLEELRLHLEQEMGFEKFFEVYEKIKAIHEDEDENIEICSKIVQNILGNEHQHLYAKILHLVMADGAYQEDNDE
Outline: as §1

[17] = molecular target: T17, PCTK1 (Homo sapiens, UniProt Q00536)
T17 construct: host or cells: E. coli host derived from the BL21 strain, infected with T7 phage
T17 sequence (Q00536 whole entry): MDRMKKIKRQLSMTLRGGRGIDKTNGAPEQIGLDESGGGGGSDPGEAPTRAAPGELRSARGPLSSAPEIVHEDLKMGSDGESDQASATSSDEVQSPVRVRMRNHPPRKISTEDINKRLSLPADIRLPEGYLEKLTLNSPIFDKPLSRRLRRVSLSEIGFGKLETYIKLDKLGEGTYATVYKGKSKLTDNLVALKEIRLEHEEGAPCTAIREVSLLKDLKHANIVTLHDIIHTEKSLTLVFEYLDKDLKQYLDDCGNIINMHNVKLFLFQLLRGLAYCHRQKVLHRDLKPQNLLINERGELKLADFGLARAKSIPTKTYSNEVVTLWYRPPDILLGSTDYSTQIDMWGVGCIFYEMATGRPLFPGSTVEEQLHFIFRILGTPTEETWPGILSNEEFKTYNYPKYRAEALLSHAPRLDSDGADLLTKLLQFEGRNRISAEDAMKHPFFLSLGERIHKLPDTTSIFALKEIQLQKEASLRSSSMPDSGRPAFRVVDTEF
Outline: as §1

[18] = molecular target: T18, PDGFRB (Homo sapiens, UniProt P09619)
T18 construct: host or cells: E. coli host derived from the BL21 strain, infected with T7 phage
Outline: as §1

[19] = molecular target: T19, PRKD1 (Homo sapiens, UniProt Q15139)
T19 construct: purchased Ambit Biosciences Corp (KinomeScan); host or cells: E. coli host derived from BL21, infected with T7 phage
T19 sequence (Q15139 whole entry): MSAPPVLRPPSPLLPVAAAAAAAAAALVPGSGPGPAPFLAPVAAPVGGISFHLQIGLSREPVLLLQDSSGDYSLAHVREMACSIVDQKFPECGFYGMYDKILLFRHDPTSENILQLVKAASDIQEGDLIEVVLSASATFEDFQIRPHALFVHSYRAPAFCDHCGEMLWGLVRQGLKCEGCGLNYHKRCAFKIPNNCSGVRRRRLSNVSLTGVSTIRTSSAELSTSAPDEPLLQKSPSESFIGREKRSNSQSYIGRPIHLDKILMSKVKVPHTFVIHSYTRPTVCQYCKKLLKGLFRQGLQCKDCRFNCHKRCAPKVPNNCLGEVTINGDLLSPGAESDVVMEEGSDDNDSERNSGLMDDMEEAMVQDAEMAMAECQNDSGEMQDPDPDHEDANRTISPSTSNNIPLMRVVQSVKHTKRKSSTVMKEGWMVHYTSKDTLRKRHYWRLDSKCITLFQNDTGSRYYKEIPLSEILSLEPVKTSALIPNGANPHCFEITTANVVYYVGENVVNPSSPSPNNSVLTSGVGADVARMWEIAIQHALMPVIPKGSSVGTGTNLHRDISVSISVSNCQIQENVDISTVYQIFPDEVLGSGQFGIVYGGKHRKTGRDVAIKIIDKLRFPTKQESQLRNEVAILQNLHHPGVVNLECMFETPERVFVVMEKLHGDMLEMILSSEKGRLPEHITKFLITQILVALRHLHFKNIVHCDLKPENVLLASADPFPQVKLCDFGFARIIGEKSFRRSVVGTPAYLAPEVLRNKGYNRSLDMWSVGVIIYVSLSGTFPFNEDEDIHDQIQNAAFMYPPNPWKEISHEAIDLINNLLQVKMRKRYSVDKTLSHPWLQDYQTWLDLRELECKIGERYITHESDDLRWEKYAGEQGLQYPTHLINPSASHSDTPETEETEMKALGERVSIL
Outline: as §1

[20] = molecular target: T20, SIK2 (Homo sapiens, UniProt Q9H0K1)
T20 construct: host or cells: E. coli host derived from the BL21 strain, T7 phage lysate
Outline: as §1

[21] = molecular target: T21, TNIK (Homo sapiens, UniProt Q9UKE5)
T21 construct: purchased Ambit Biosciences Corp (KinomeScan); host or cells: E. coli host derived from the BL21 strain (T7 phage lysate)
Outline: as §1

[22] = molecular target: T22, TRKA (Homo sapiens, UniProt P04629)
T22 construct: purchased Ambit Biosciences Corp (KinomeScan); host or cells: E. coli host derived from the BL21 strain (T7 phage lysate)
Outline: as §1

C#Cc1cccc(Nc2ncnc3cc(OC)c(OCCCN4CCOCC4)cc23)c1 [NRC-2694, N-(3-ethylnylphenyl)-7-methoxy-6-[3-(4-morpholinyl)propoxy]-4-quinazolinamine]
% Ctrl @ 10000 nM [1]: 33 % Ctrl
% Ctrl @ 10000 nM [2]: 37 % Ctrl
% Ctrl @ 10000 nM [3]: 4.4 % Ctrl
% Ctrl @ 10000 nM [4]: 78 % Ctrl
% Ctrl @ 10000 nM [5]: 33 % Ctrl
% Ctrl @ 10000 nM [6]: 92 % Ctrl
% Ctrl @ 10000 nM [7]: 34 % Ctrl
% Ctrl @ 10000 nM [8]: 39 % Ctrl
% Ctrl @ 10000 nM [9]: 76 % Ctrl
% Ctrl @ 10000 nM [10]: 0 % Ctrl
% Ctrl @ 10000 nM [11]: 85 % Ctrl
% Ctrl @ 10000 nM [12]: 90 % Ctrl
% Ctrl @ 10000 nM [13]: 79 % Ctrl
% Ctrl @ 10000 nM [14]: 99 % Ctrl
% Ctrl @ 10000 nM [15]: 83 % Ctrl
% Ctrl @ 10000 nM [16]: 66 % Ctrl
% Ctrl @ 10000 nM [17]: 100 % Ctrl
% Ctrl @ 10000 nM [18]: 10 % Ctrl
% Ctrl @ 10000 nM [19]: 9.6 % Ctrl
% Ctrl @ 10000 nM [20]: 21 % Ctrl
% Ctrl @ 10000 nM [21]: 17 % Ctrl
% Ctrl @ 10000 nM [22]: 100 % Ctrl
